Reference: US6465482B2, “Arylpiperazinyl-cyclohexyl indole derivatives for the treatment of depression” (Wyeth, priority 1999, dated 2002)
Structures can show the parent of a compound that is named as a salt.

| Compound | melting point |
| --- | --- |
| CCn1cc([C@H]2CC[C@H](N3CCN(c4cccc5[nH]ccc45)CC3)CC2)c2cc(C#N)ccc21 (as salt: HCl) [Example 13b, 1-Ethyl-3-{(1,4-trans)-4-[4-(1H-indol-4-yl)-piperazin-1-yl]-cyclohexyl}-1H-indole-5-carbonitrile] | 250 °C (dec.) |
| Cn1ccc2c(N3CCN([C@H]4CC[C@@H](c5cn(C)c6ccc(C#N)cc65)CC4)CC3)cccc21 (as salt: HCl) [Example 17, 1-Methyl-3-{(1,4-cis)-4-[4-(1-methyl-1H-indol-4-yl)-piperazin-1-yl]-cyclohexyl}-1H-indole-5-carbonitrile] | 252 to 255 °C |
| COc1ccccc1N1CCN([C@H]2CC[C@@H](c3c[nH]c4ccc(F)cc43)CC2)CC1 (as salt: HCl) [Example 18, 5-Fluoro-3-{(cis)-4-[4-(2-methoxy-phenyl)-piperazin-1-yl]-cyclohexyl}-1H-indole] | 170 to 172 °C |
| COc1ccccc1C1CCN([C@H]2CC[C@@H](c3c[nH]c4ccc(F)cc43)CC2)CC1 (as salt: HCl) [Example 19a, 5-Fluoro-3-{(1,4-cis)-4-[4-(2-methoxy-phenyl)-piperidin-1-yl]-cyclohexyl}-1H-indole] | 245 to 250 °C |
| COc1ccccc1C1CCN([C@H]2CC[C@H](c3c[nH]c4ccc(F)cc43)CC2)CC1 (as salt: HCl) [Example 19b, 5-Fluoro-3-{(1,4-trans)-4-[4-(2-methoxy-phenyl)-piperidin-1-yl]-cyclohexyl}-1H-indole] | 297 to 299 °C |
| COc1ccc2[nH]cc([C@H]3CC[C@@H](N4CCN(c5ccccc5OC)CC4)CC3)c2c1 (as salt: HCl) [Example 20a, 5-Methoxy-3-{(1,4-cis)-4-[4-(2-methoxy-phenyl)-piperazin-1-yl]-cyclohexyl}-1H-indole] | 198 to 199 °C |
| COc1ccc2[nH]cc([C@H]3CC[C@H](N4CCN(c5ccccc5OC)CC4)CC3)c2c1 (as salt: HCl) [Example 20b, 5-Methoxy-3-{(1,4-trans)-4-[4-(2-methoxy-phenyl)-piperazin-1-yl]-cyclohexyl}-1H-indole] | 195 to 197 °C |
| COc1ccccc1N1CCN([C@H]2CC[C@@H](c3c[nH]c4ncccc43)CC2)CC1 (as salt: HCl) [Example 21, 3-{(1,4-cis)-4-[4-(2-Methoxy-phenyl)-piperazin-1-yl]-cyclohexyl}-1H-pyrrolo[2,3-b]pyridine] | 259 to 261 °C |
| COc1ccc(F)cc1N1CCN([C@H]2CC[C@@H](c3c[nH]c4ccc(F)cc43)CC2)CC1 (as salt: HCl) [Example 22a, 5-Fluoro-3-{(cis)-4-[4-(5-fluoro-2-methoxy-phenyl)-piperazin-1-yl]-cyclohexyl}-1H-indole] | 171 to 174 °C |
| COc1ccc(F)cc1N1CCN([C@H]2CC[C@H](c3c[nH]c4ccc(F)cc43)CC2)CC1 (as salt: HCl) [Example 22b, 5-Fluoro-3-{(trans)-4-[4-(5-fluoro-2-methoxy-phenyl)-piperazin-1-yl]-cyclohexyl}-1H-indole] | 272 to 273.5 °C |
| Fc1cccc2[nH]cc([C@H]3CC[C@@H](N4CCN(c5cccc6c5OCCO6)CC4)CC3)c12 (as salt: HCl) [Example 23a, 3-{(1,4-cis)-4-[4-(2,3-Dihydro-benzo[1,4]dioxin-5-yl)-piperazin-1-yl]-cyclohexyl}-4-fluoro-1H-indole] | 215 to 220 °C |
| Fc1ccc2c(c1)[nH]cc2[C@H]1CC[C@@H](N2CCN(c3cccc4c3OCCO4)CC2)CC1 (as salt: HCl) [Example 25a, 3-{(1,4-cis)-4-[4-(2,3-Dihydro-benzo[1,4]dioxin-5-yl)-piperazin-1-yl]-cyclohexyl}-6-fluoro-1H-indole] | 228 to 230 °C |
| Fc1ccc2c(c1)[nH]cc2[C@H]1CC[C@H](N2CCN(c3cccc4c3OCCO4)CC2)CC1 (as salt: HCl) [Example 25b, 3-{(1,4-trans)-4-[4-(2,3-Dihydro-benzo[1,4]dioxin-5-yl)-piperazin-1-yl]-cyclohexyl}-6-fluoro-1H-indole] | 309 to 310 °C |
| N#Cc1ccc2[nH]cc([C@H]3CC[C@@H](N4CCN(c5cccc6c5OCCO6)CC4)CC3)c2c1 (as salt: HCl) [Example 26a, 3-{(1,4-cis)-4-[4-(2,3-Dihydro-benzo[1,4]dioxin-5-yl)-piperazin-1-yl]-cyclohexyl}-1H-indole-5-carbonitrile] | 300 °C |
| N#Cc1ccc2[nH]cc([C@H]3CC[C@H](N4CCN(c5cccc6c5OCCO6)CC4)CC3)c2c1 (as salt: HCl) [Example 26b, 3-{(1,4-trans)-4-[4-(2,3-Dihydro-benzo[1,4]dioxin-5-yl)-piperazin-1-yl]-cyclohexyl}-1H-indole-5-carbonitrile] | 300 °C (dec.) |
| Cn1cc([C@H]2CC[C@@H](N3CCN(c4cccc5cccnc45)CC3)CC2)c2cc(C#N)ccc21 (as salt: HCl) [Example 30, 1-Methyl-3-[(1,4-cis)-4-(4-quinolin-8-yl-piperazin-1-yl)-cyclohexyl]-1H-indole-5-carbonitrile] | 288 to 289 °C |
| Cn1cc([C@H]2CC[C@@H](N3CCN(c4cc(F)cc5c4OCC5)CC3)CC2)c2cc(C#N)ccc21 (as salt: HCl) [Example 33c, 3-{(1,4-cis)-4-[4-(5-Fluoro-2,3-dihydro-benzofuran-7-yl)-piperazin-1-yl]-cyclohexyl}-1-methyl-1H-indole-5-carbonitrile] | 282 to 284 °C |
| COc1ccccc1N1CCN(C2CC=C(c3c[nH]c4ccc(F)cc34)CC2)CC1 (centres unmarked) (as salt: HCl) [Example 35, 5-Fluoro-3-{4-[4-(2-methoxy-phenyl)-piperazin-1-yl]cyclohex-1-enyl}-1H-indole] | 250 °C |
| N#Cc1ccc2[nH]cc(C3=CCC(N4CCN(c5cccc6[nH]ccc56)CC4)CC3)c2c1 (centres unmarked) (as salt: HCl) [Example 36, 3-{4-[4-(1H-Indol-4-yl)-piperazin-1-yl]-cyclohex-1-enyl}-1H-indole-5-carbonitrile] | 199 to 201 °C |
| COc1ccc2cc(N3CCN(C4CCC(c5c[nH]c6ccc(F)cc56)CC4)CC3)ccc2c1 (centres unmarked) (as salt: oxalate) [Example 69, 5-Fluoro-3-{4-[4-(6-Methoxy-naphthalen-2-yl)-piperazin-1-yl]-cyclohexyl}-1H-indole] | 200 to 203 °C |
| Cn1cc([C@H]2CC[C@@H](N3CCN(c4cc(C=O)cc5cccnc45)CC3)CC2)c2cc(C#N)ccc21 (as salt: oxalate) [Example 71, 8-[4-[(cis)-4-(5-Cyano-1-methyl-1H-indole-3-yl)-cyclohexyl]-piperazin-1-yl]-6-quinolinecarbaldehyde] | 172 to 174 °C |
| Cn1cc([C@H]2CC[C@@H](N3CCN(c4cc(C(=O)O)cc5cccnc45)CC3)CC2)c2cc(C#N)ccc21 (as salt: oxalate) [Example 73, 8-[4-[(cis)-4-(5-Cyano-1-methyl-1H-indole-3-yl)cyclohexyl]-1-piperazinyl]-6-quinolinecarboxylic Acid] | 230 °C |
| COC(=O)c1cc(N2CCN([C@H]3CC[C@@H](c4cn(C)c5ccc(C#N)cc54)CC3)CC2)c2ncccc2c1 (as salt: oxalate) [Example 75, Methyl 8-[4-[(cis)-4-(5-cyano-1-methyl-1H-indol-3-yl)cyclohexyl]-1-piperazinyl]-6-quinolinecarboxylate] | 153 to 155 °C |
| COc1cc(N2CCN([C@H]3CC[C@@H](c4c[nH]c5ncccc54)CC3)CC2)c2ncccc2c1 (as salt: oxalate) [Example 78, 6-Methoxy-8-{cis-4-[4-(1H-pyrrolo[2,3-b]pyridin-3-yl)cyclohexyl]-1-piperazinyl}quinoline] | 216 to 220 °C |

The remaining lines, values ahead:

| melting point | Compound |
| --- | --- |
| > 210 °C | COc1cc(N2CCN([C@H]3CC[C@H](c4c[nH]c5ccc(C#N)cc54)CC3)CC2)c2cc[nH]c2c1 (as salt: HCl) [Example 68b, 3-[trans-4-[4-(6-Methoxy-1H-indole-4-yl)-1-piperazinyl]cyclohexyl]1H-indole-5-carbonitrile] |
| 163 to 165 °C | CN(C)C(=O)c1cc(N2CCN([C@H]3CC[C@@H](c4cn(C)c5ccc(C#N)cc54)CC3)CC2)c2ncccc2c1 (as salt: oxalate) [Example 77a, 8-[4-[(cis)-4-(5-Cyano-1-methyl-1H-indol-3-yl)cyclohexyl]-1-piperazinyl]-N,N-dimethyl-6-quinolincarboxamide] |
| 235 to 238 °C | COc1cc2cccnc2c(N2CCN([C@H]3CC[C@@H](c4cn(C)c5ccc(C#N)cc54)CC3)CC2)n1 (as salt: salt) [Example 66a, (cis)-3-{4-[4-(6-Methoxy[1,7]naphthyridin-8-yl)piperazin-1-yl]cyclohexyl}-1-methyl-1H-indole-5-carbonitrile] |
| 230 to 233 °C | COc1cc2cccnc2c(N2CCN([C@H]3CC[C@@H](c4cn(C)c5ccc(C#N)cc54)CC3)CC2)n1 (as salt: salt) [Example 66b, (cis)-3-{4-[4-(6-Methoxy[1,7]naphthyridin-8-yl)piperazin-1-yl]cyclohexyl}-1-methyl-1H-indole-5-carbonitrile] |
| 201 to 203 °C | COc1cc(N2CCN([C@H]3CC[C@@H](c4cn(C)c5ccc(C#N)cc54)CC3)CC2)c2nc(C)ccc2c1 [Example 51a, (cis)-3-{4-[4-(6-Methoxy-2-methylquinolin-8-yl)piperazin-1-yl]cyclohexyl}-1-methyl-1H-indole-5-carbonitrile] |
| 190 to 191.5 °C | COc1cc(N2CCN([C@H]3CC[C@@H](c4cn(C)c5ccc(C#N)cc54)CC3)CC2)c2ncc(C)cc2c1 [Example 51b, (cis)-3-{4-[4-(6-Methoxy-3-methylquinolin-8-yl)piperazin-1-yl]cyclohexyl}-1-methyl-1H-indole-5-carbonitrile] |
| 210 to 212 °C | COc1cc(N2CCN([C@H]3CC[C@@H](c4cn(C)c5ccc(C#N)cc54)CC3)CC2)c2nccc(C)c2c1 [Example 51c, (cis)-3-{4-[4-(6-Methoxy-4-methylquinolin-8-yl)piperazin-1-yl]cyclohexyl}-1-methyl-1H-indole-5-carbonitrile] |
| 230 to 232 °C | COc1cc(N2CCN([C@H]3CC[C@H](c4cn(C)c5ccc(C#N)cc54)CC3)CC2)c2nccc(C)c2c1 [Example 51d, (trans)-3-{4-[4-(6-Methoxy-4-methylquinolin-8-yl)piperazin-1-yl]cyclohexyl}-1-methyl-1H-indole-5-carbonitrile] |
